The test system of data set [1] is progesterone receptor (PR) activity in T47D cells. Description: MMTV-Luc reporter assay for PR activity in T47D cells. Type of data set: cell-based, human. The following applies: R5020 10 nM. On the procedure:
FIG. 10 depicts that the inhibition of ER activity by these six compounds is not to due to non-specific cytotoxicity, since cell viability remained over 80% after a 24-hr exposure to 1 μM of each of the compounds (A). One of the compounds was tested for its ability to inhibit progestin-stimulated progesterone receptor (PR) activity in a PR+ human breast cancer cell line (T47D), using the MMTV-Luc reporter as a readout for PR activity (B). Here, PR activity was stimulated over 20-fold by the synthetic progestin R5020 (10 nM), but compound 4631-P/1 had no effect on PR activity at either 1 μM or 20 μM.
Progesterone receptor (PR) transcriptional activity assays were carried out in T47D cells using the synthetic progestin R5020 (10 nM) to activate PR and the MMTV-Luc reporter as a readout for PR activity.
Subconfluent proliferating MCF-7 cells were treated with vehicle (DMSO) or with the a sensitizing compound for 24 hours and then assayed for cell viability using MTT dye reduction assays. […] Subconfluent proliferating T47D cells were also transfected overnight with a progesterone-responsive reporter (MMTV-Luc) and then exposed to a synthetic progestin (R5020, 10 nM) for 24 hours in the absence or presence of compound 4631 P/1, as indicated.

The subject of data set [2] is ER activity in MCF-7 cells. Description: ERE-TK-Luc reporter assay in MCF-7 cells. Type of data set: cell-based, human. An excerpt:
(§1) FIG. 8 depicts BRCA1 over-expression partially restores Tamoxifen sensitivity to anti-estrogen-resistant LCC9 cells. The effect of BRCA1 over-expression (by transfection of a wild-type (wt) full-length BRCA1 expression vector) was studied in E2-insensitive anti-estrogen resistant LCC9 human breast cancer cells with E2-sensitive/anti-estrogen sensitive MCF-7 breast cancer cells. The wtBRCA1 suppressed the constitutive ER activity (measured using the ERE-TK-Luc reporter as a readout), but Tam (5 μM) by itself had no effect on ER activity (A and B (left)). […] When MCF-7 cells were tested in the absence of E2, ER activity was very low under most conditions (illustrating the requirement for E2 to activate ER), but in the absence of E2, Tam functioned as an ER agonist and caused about a (5-6)-fold increase in ER activity (P<0.001).
FIG. 9 depicts the inhibition of E2-stimulated ER activity in MCF-7 cells by six compounds.
Subconfluent cells in 24-well dishes were transfected overnight with 0.25 μg of each indicated vector plus the ERE-TK-Luc reporter in serum-free DMEM containing Lipofectamine2000 (Life Technologies). The total transfected DNA was kept constant by addition of the appropriate control vector. […]
In general terms: Reporter assays use an easily measured gene product as a stand-in for the process of interest.

Data set [3] has as its system ER activity in LCC9 cells. In words: ERE-TK-Luc reporter assay in LCC9 cells. The class given is cell-based, human. The following applies: Tam 5 μM, wtBRCA1 expression vector transfected. The procedure:
FIG. 3 depicts the inhibition of ER activity in anti-estrogen resistant LCC9 cells. LCC9 cells in 24-well dishes were transfected overnight with the ERE-TK-Luc reporter plasmid (0.25 μg per well), washed, and allowed to recover for several hours in fresh culture medium. The cells were then treated with the indicated concentrations of the six bioactive compounds or vehicle only (DMSO) for 24 hr and assayed for luciferase activity. Luciferase activity is expressed as a percentage of the DMSO control. Values are means±SEMs of four replicate wells.
as §1, with “(P<0.001). […]” for “(P<0.001).”

The subject of data set [4] is cathepsin D (E2/ER-regulated gene) in MCF-7 cells. In words: cathepsin D protein expression in MCF-7 cells. Type of data set: cell-based, human. The following applies: 24-hr exposure to E2 (10 nM). The procedure:
FIG. 7 depicts the ability of compounds 4631-P/1 and 35466-L/1 to inhibit the expression of an ER-regulated gene. Cathepsin D was used as a prototype E2/ER-regulated gene.
For Western blotting, after the indicated treatment(s), cells were harvested, and whole-cell lysates were prepared using RIPA buffer (Santa Cruz). Equal aliquots of whole-cell protein (either 100 μg unprecipitated whole-cell lysate or one half of the precipitated protein from 500 μg whole-cell lysate) were electrophoresed on 4-12% SDS-polyacrylamide gradient gels, transferred to nitrocellulose membranes (Millipore, Bedford, Mass.), and blotted using primary antibodies directed against BRCA1 (C-20, rabbit polyclonal, 1:200 dilution; Santa Cruz), ER (F10, mouse monoclonal, sc-8002, 1:500; Santa Cruz), and actin (goat polyclonal, catalog item sc-1615, 1:400; Santa Cruz). The membranes were then blotted with the appropriate secondary antibodies (1:1000; Santa Cruz), and the blotted proteins were visualized using an electrochemiluminescence (ECL) detection system (Amersham Biosciences), with colored markers (Bio-Rad Laboratories, Hercules, Calif.) as molecular size standards.

Another data set has as its system BRCA1 protein levels. In words: siRNA efficacy validation by Western blotting. Type of data set: cell-based. The following applies: minimum 48 hr exposure to 100 nM siRNA.

The results in this text go back to patent publication US9603844B2, “Compositions and methods for treating mammary tumors” (GEORGETOWN UNIVERSITY, priority 2012, dated 2017).

Description for BRCA1 protein levels: (catalog number: 43924220, Ambion/Life Technologies; and negative control-siRNA (catalog number: AM4461, Ambion). The efficacy of the ER-siRNA was validated by Western blotting. For siRNA treatments, subconfluent cells were treated with ER-specific or control siRNAs (final concentration of 100 nM) using siPORT Amine transfection reagent (Ambion), according to the manufacturer's instructions.

On to `CCC(=O)[C@@]1(C)CC[C@H]2[C@@H]3CCC4=CC(=O)CCC4=C3CC[C@@]21C` [R5020], for which the “stimulation of PR activity” value in data set [1] is given as “over 20 fold”.
As to `CC/C(=C(\c1ccccc1)c1ccc(OCCN(C)C)cc1)c1ccccc1` [Tam, Tamoxifen], the “increase in ER activity in the absence of E2” value in data set [2] (absence of E2, P<0.001) is 5-6 fold. Also, the “E2-stimulated ER activity in MCF-7 cells (ERE-TK-Luc)” value in data set [2] (with E2) is recorded as “strongly suppressed”. Besides, the “constitutive ER activity in LCC9 cells (ERE-TK-Luc)” value in data set [3] is recorded as “no effect”.
For the molecule `C[C@]12CC[C@@H]3c4ccc(O)cc4CC[C@H]3[C@@H]1CC[C@@H]2O` [E2, 17β-estradiol], the “cathepsin D protein levels after E2” value in data set [4] was “increased significantly”.
Regarding “ER-siRNA: ER-α small interfering RNA, Ambion catalog number 43924220 (sense CAGGCACAUGAGUAACAAATT; antisense UUUGUUACUCAUGUGCCUGAT; chemistry not given here)”, the “reduction of the BRCA1 protein levels” value in the data set on BRCA1 protein levels is given as > 75%.
